Source: patent US20200011856A1, “Method for Determining the Effectiveness of Treatment for the Prevention of Heartworm Disease” (priority 2017, published 2020)
Several values for one entry are separate records, joined by “and”; a condition that tells them apart may be missing. Equal values may be shown once.

Assays:
Dirofilaria immitis = assay: D. immitis L3 infection of NSG mice (FR3 Missouri strain or strain not stated), treatment, recovery and count of worms at necropsy; assay type: in vivo; conditions: for % Rec (percent of the original 50 Di recovered): 1 mg/kg
[1] = tested on: Dirofilaria immitis (Merial worms, UC strain); assay: D. immitis L3 infection of NSG mice with Merial worms / UC strain, treatment, recovery and count of worms; assay type: in vivo; conditions: for % Rec, Mean / Mean % Rec: group mean; for Mean Survival / Survival, Mean: in vivo
[2] = NSG mice, 50 Di L3 Merial worms, 1 mg/kg on Days 1, 15, and 30, recovery Days 41 to 43
[3] = NSG mice, 50 Di L3 UC strain, High Dose 2 mg/kg on Days 1, 15, and 30, recovery Days 41 and 42
[4] = NSG mice, 50 Di L3 UC strain, Normal Dose 1 mg/kg on Days 1, 15, and 30, recovery Days 41 and 42

**Q.** CC(C)C[C@H]1C(=O)O[C@H](C)C(=O)N(C)[C@@H](CC(C)(C)F)C(=O)O[C@H](Cc2ccc(C3CCOCC3)cc2)C(=O)N(C)[C@@H](CC(C)C)C(=O)O[C@H](C)C(=O)N(C)[C@@H](CC(C)(C)F)C(=O)O[C@H](Cc2ccc(C3CCOCC3)cc2)C(=O)N1C [compound 8800] was tested. Which “% Red” value (Dirofilaria immitis; 8800 5 mg/kg Days 1, 15, 30, 50 Di L3 per NSG mouse, Table 14, vs Control) did it give?
**A.** 100%

**Q.** And the “% Rec, Mean” value (Dirofilaria immitis; 8800 5 mg/kg Days 1, 15, 30, 50 Di L3 per NSG mouse, recovery Days 41 to 42, Table 14, group mean)?
**A.** 0%

**Q.** And the “% Rec” value (Dirofilaria immitis; 8800 5 mg/kg Days 1, 15, 30, 50 Di L3 per NSG mouse, recovery Days 41 to 42, Table 14, individual mice)?
**A.** 0%

**Q.** What about the “% Red” value (Dirofilaria immitis; NSG mice, 50 Di L3, 2x (1 mg/kg) at Days 1 and 30, recovery Days 41 to 43) of the same molecule?
**A.** 38%

**Q.** And the “% Red” value (Dirofilaria immitis; NSG mice, 50 Di L3 Day 0, 1 mg/kg EMO or 8800 on Days 30 and 60, recovery Days 83 and 84)?
**A.** 43%

**Q.** And the “% Red (percent reduction in percent of Di recovered compared to control)” value (Dirofilaria immitis; NSG mice, 50 Di L3 Day 0, 1 mg/kg on Day 30, recovery Days 41 to 43)?
**A.** 23%

**Q.** And the “% Red” value (Dirofilaria immitis; Table 9, NSG mice, 50 Di L3, 1 mg/kg on Days 1, 15, and 30, recovery Days 41 to 43)?
**A.** 73%

**Q.** And the “Mean % Rec” value (Dirofilaria immitis; Table 9, group mean, NSG mice, 50 Di L3, 1 mg/kg on Days 1, 15, and 30, recovery Days 41 to 43)?
**A.** 9%

**Q.** And the “% Rec” value (Dirofilaria immitis; Table 9, individual mouse, NSG mice, 50 Di L3, 1 mg/kg on Days 1, 15, and 30, recovery Days 41 to 43)?
**A.** 8% (3×) and 10% and 28% and 16% and 0%

**Q.** And the “% Red” value (Dirofilaria immitis; Table 11, NSG mice, 50 Di L3, 0.3 mg/kg on Days 1, 15, and 30, recovery Days 41 to 42)?
**A.** 0%

**Q.** And the “% Red” value (Dirofilaria immitis; Table 11, NSG mice, 50 Di L3, 1 mg/kg on Days 1, 15, and 30, recovery Days 41 to 42)?
**A.** 71%

**Q.** And the “Mean % Rec” value (Dirofilaria immitis; Table 11, group mean, NSG mice, 50 Di L3, 0.3 mg/kg on Days 1, 15, and 30, recovery Days 41 to 42)?
**A.** 26%

**Q.** What about the “Mean % Rec” value (Dirofilaria immitis; Table 11, group mean, NSG mice, 50 Di L3, 1 mg/kg on Days 1, 15, and 30, recovery Days 41 to 42) of the same molecule?
**A.** 7%

**Q.** And the “% Rec” value (Dirofilaria immitis; Table 11, individual mouse, NSG mice, 50 Di L3, 0.3 mg/kg on Days 1, 15, and 30, recovery Days 41 to 42)?
**A.** 16% (2×) and 36% (3×) and 14%

**Q.** What about the “% Rec” value (Dirofilaria immitis; Table 11, individual mouse, NSG mice, 50 Di L3, 1 mg/kg on Days 1, 15, and 30, recovery Days 41 to 42) of the same molecule?
**A.** 4% (2×) and 2% and 16% and 8% and 6%

**Q.** And the “Mean % Rec” value (Dirofilaria immitis; group mean, NSG mice, 50 Di L3, 2x (1 mg/kg) at Days 1 and 30, recovery Days 41 to 43)?
**A.** 21%

**Q.** What about the “Mean % Rec” value (Dirofilaria immitis; group mean, NSG mice, 50 Di L3 Day 0, 1 mg/kg EMO or 8800 on Days 30 and 60, recovery Days 83 and 84) of the same molecule?
**A.** 8%

**Q.** What about the “Mean % Rec” value (Dirofilaria immitis; group mean, NSG mice, 50 Di L3 Day 0, 1 mg/kg on Day 30, recovery Days 41 to 43) of the same molecule?
**A.** 31%

**Q.** And the Survival (Dirofilaria immitis; in vivo, 5 mg/kg)?
**A.** 0

**Q.** What about the “Survival, Mean” value (Dirofilaria immitis; in vivo, 5 mg/kg) of the same molecule?
**A.** 0

**Q.** And the “% Rec” value (Dirofilaria immitis; individual mouse, NSG mice, 50 Di L3, 2x (1 mg/kg) at Days 1 and 30, recovery Days 41 to 43)?
**A.** 22% and 16% and 12% and 26% and 20% and 32%

**Q.** What about the “% Rec (percent of the original 50 Di recovered)” value (Dirofilaria immitis; individual mouse, NSG mice, 50 Di L3 Day 0, 1 mg/kg EMO or 8800 on Days 30 and 60, recovery Days 83 and 84) of the same molecule?
**A.** 14% and 4% (2×) and 10% and 12% and 6%

**Q.** What about the “% Rec (percent of the original 50 Di recovered)” value (Dirofilaria immitis; individual mouse, NSG mice, 50 Di L3 Day 0, 1 mg/kg on Day 30, recovery Days 41 to 43) of the same molecule?
**A.** 24% (3×) and 36% and 28% and 52%

**Q.** And the “% Rec, Mean” value ([1]; 8800 1 mg/kg Days 1, 15, 30, 50 Di L3 (UC Strain) per NSG mouse, recovery Days 41 to 43)?
**A.** 10%

**Q.** What about the “% Rec” value ([1]; 8800 1 mg/kg Days 1, 15, 30, 50 Di L3 (UC Strain) per NSG mouse, recovery Days 41 to 43, individual mice, 1 mg/kg) of the same molecule?
**A.** 10% (2×) and 14% and 16% and 4% and 6% and 12%

**Q.** What about the “% Red” value ([1]; 8800 1 mg/kg Days 1, 15, 30, 50 Di L3 (UC Strain) per NSG mouse, vs Control) of the same molecule?
**A.** 73%

**Q.** And the “% Rec, Mean” value ([1]; 8800 2 mg/kg Days 1, 15, 30, 50 Di L3 (UC Strain) per NSG mouse, recovery Days 41 to 43)?
**A.** 2%

**Q.** And the “% Rec” value ([1]; 8800 2 mg/kg Days 1, 15, 30, 50 Di L3 (UC Strain) per NSG mouse, recovery Days 41 to 43, individual mice, 2 mg/kg)?
**A.** 2% (3×) and 0% (2×) and 6% and 4%

**Q.** What about the “% Red” value ([1]; 8800 2 mg/kg Days 1, 15, 30, 50 Di L3 (UC Strain) per NSG mouse, vs Control) of the same molecule?
**A.** 94%

**Q.** And the “% Red” value [1, 2]?
**A.** 65%

**Q.** What about the “% Red” value [1, 3] of the same molecule?
**A.** 94%

**Q.** And the “% Red” value [1, 4]?
**A.** 81%

**Q.** What about the “Mean % Rec” value [1, 2] of the same molecule?
**A.** 12%

**Q.** And the “Mean % Rec” value [1, 3]?
**A.** 2%

**Q.** And the “Mean % Rec” value [1, 4]?
**A.** 7%

**Q.** And the “Mean Survival” value ([1]; 1 mg/kg)?
**A.** 6 and 4

**Q.** What about the “Survival, Mean” value ([1]; 1 mg/kg) of the same molecule?
**A.** 5

**Q.** What about the “Mean Survival” value ([1]; 2 mg/kg) of the same molecule?
**A.** 1

**Q.** What about the “Survival, Mean” value ([1]; 2 mg/kg) of the same molecule?
**A.** 1

**Q.** And the “% Rec” value ([1]; individual mouse, NSG mice, 50 Di L3 Merial worms, 1 mg/kg on Days 1, 15, and 30, recovery Days 41 to 43, 1 mg/kg)?
**A.** 0% (2×) and 12% (3×) and 8% and 32% and 16%

**Q.** And the “% Rec” value ([1]; individual mouse, NSG mice, 50 Di L3 UC strain, High Dose 2 mg/kg on Days 1, 15, and 30, recovery Days 41 and 42, 2 mg/kg)?
**A.** 2% (3×) and 0% (3×) and 8%

**Q.** What about the “% Rec” value ([1]; individual mouse, NSG mice, 50 Di L3 UC strain, Normal Dose 1 mg/kg on Days 1, 15, and 30, recovery Days 41 and 42, 1 mg/kg) of the same molecule?
**A.** 6% (2×) and 4% and 2% and 8% and 10% and 14%
